Experimental data: paper PMC5797143, “Epigenetic modulation of inflammation and synaptic plasticity promotes resilience against stress in mice” (Nature Communications, 2018)
Like-named read-outs stand apart in the source and are kept apart here.

How the values were obtained:
[1] = Plasma stability, human plasma; assay type: in vitro ADME; details: 37 °C
Protocol: (§1) Compound stability in mouse and human plasma and in mouse brain homogenate were conducted, [45]. Specifically, Mal-gluc or DHCA was incubated in duplicate with plasma at 37 °C and samples were taken at various time points and mixed with three volumes of ice-cold Stop Solution (methanol containing propranolol, diclofenac, or other internal standard). Samples were centrifuged to remove precipitated protein, and the supernatants were analyzed by LC/MS/MS to quantitate for remaining test compound. Data are converted to percentage remaining by dividing by the time zero concentration value. Data are fit to a first-order decay model to determine half-life. Plasma protein binding were conducted using both mouse and human plasma.

[2] = target: T1, Beta3 (beta adrenergic receptor) (Homo sapiens, UniProt P13945); test: Radioligand binding assay; details: 10 µM; HEK membrane fractions; quadruplicate
T1 construct: purchased NIMH Psychoactive Drug Screening Program (PDSP)
Protocol: (§2) Radioligand binding assays were performed as previously described. Briefly, crude membrane fractions prepared from a stable HEK cell line expressing recombinant receptors were mixed with a radiolabeled specific ligand and 10 µM of competitor compound (DHCA, Mal-gluc, or non-specific ligand). The percentage of radioligand binding was subsequently measured.

[3] = target: T2, 5-HT1A (serotonin receptor) (Homo sapiens, UniProt P08908); test: Radioligand binding assay; details: 10 µM; HEK membrane fractions; quadruplicate
T2 construct: purchased NIMH Psychoactive Drug Screening Program (PDSP)
Protocol: as §2

[4] = target: T3, Alpha1B (alpha adrenergic receptor) (Homo sapiens, UniProt P35368); test: Radioligand binding assay; details: 10 µM; HEK membrane fractions; quadruplicate
T3 construct: purchased NIMH Psychoactive Drug Screening Program (PDSP)
Protocol: as §2

[5] = target: T4, Alpha1A (alpha adrenergic receptor) (Homo sapiens, UniProt P35348); test: Radioligand binding assay; details: 10 µM; HEK membrane fractions; quadruplicate
T4 construct: purchased NIMH Psychoactive Drug Screening Program (PDSP)
Protocol: as §2

[6] = target: T5, NET (norepinephrine transporter) (Homo sapiens, UniProt P23975); test: Radioligand binding assay; details: 10 µM; HEK membrane fractions; quadruplicate
T5 construct: purchased NIMH Psychoactive Drug Screening Program (PDSP)
Protocol: as §2

[7] = target: T6, Alpha2B (alpha adrenergic receptor) (Homo sapiens, UniProt P18089); test: Radioligand binding assay; details: 10 µM; HEK membrane fractions; quadruplicate
T6 construct: purchased NIMH Psychoactive Drug Screening Program (PDSP)
Protocol: as §2

D1 (dopamine receptor) = target: T7, D1 (dopamine receptor) (Homo sapiens, UniProt P21728); test: Radioligand binding assay; details: 10 µM; HEK membrane fractions; quadruplicate
T7 construct: purchased NIMH Psychoactive Drug Screening Program (PDSP)
Protocol: as §2

[8] = target: T8, DAT (dopamine transporter) (Homo sapiens, UniProt Q01959); test: Radioligand binding assay; details: 10 µM; HEK membrane fractions; quadruplicate
T8 construct: purchased NIMH Psychoactive Drug Screening Program (PDSP)
Protocol: as §2

[9] = Brain homogenate stability; assay type: in vitro ADME
Protocol: as §1

[10] = system: MSN-enriched primary neurons and PBMCs; test: MTT assay; assay type: cell-based, mouse
Protocol: MTT and LDH release assays were conducted in MSN-enriched primary neurons and in PBMCs[64]. Cellular cytotoxicity was conducted in HepG2 cells using high content screening (HCS) protocols. Briefly, HepG2 cells were plated on 384-well tissue culture treated black walled clear bottomed polystyrene plates and treated with varying concentrations of Mal-gluc or DHCA. The cells were loaded with the relevant dye/antibody for each cell-health marker following incubation, including cell count, markers for nuclear size, DNA structure, cell membrane permeability, mitochondrial mass, mitochondrial membrane potential and cytochrome C release. The plates were then scanned using an automated fluorescent cellular imager ArrayScanr (Thermo Scientific Cellomics).

CYP2C19 = target: T9, CYP2C19 (Homo sapiens, UniProt P33261); test: CYP inhibition in human liver microsomes; assay type: in vitro ADME; details: read-out: CPY450 inhibition (IC50), CYP2C19
T9 construct: from tissue; host or cells: human liver microsomes
Protocol: (§3) CYP inhibition was tested in isolated microsomes for CYP2D6, CYP3A4, CYP1A2, CYP2C9, CYP2C19, CYP2C8, and CYP2B6[66]. Briefly, increasing concentrations of Mal-gluc or DHCA were incubated with human liver microsomes (HLM) in the presence of 2 mM NADPH in 100 mM potassium phosphate (pH 7.4) containing 5 mM magnesium chloride and a specific probe substrate for different CYPs: tacrine (CYP1A2), amodiaquine (CYP2C8), tolbutamide (CYP2C9), S-mephenytoin (CYP2C19), dextromethorphan (CYP2D6), midazolam/testosterone (CYP3A4/5), or bupropion (CYP2B6). CYP-specific inhibitors were included alongside the test compound as a positive control, including α-naphthoflavone (CYP1A2), quercetin (CYP2C8), ketoconazole (CYP3A4/5), quinidine (CYP2D6), sulfaphenazole (CYP2C9), and ticlopidine (CYP2C19, CYP2B6). After incubation at 37 °C, the reactions were terminated by addition of a methanol-containing internal standard (propranolol) for analytical quantification. The quenched samples were then incubated at 4 °C for 10 min and centrifuged at 4 °C for 10 min. The supernatant was removed and the probe substrate metabolite was analyzed by LC-MS/MS (Agilent Technologies Triple Quad LC-MS/MS).

CYP2D6 = target: T10, CYP2D6 (Homo sapiens, UniProt P10635); test: CYP inhibition in human liver microsomes; assay type: in vitro ADME; details: read-out: CPY450 inhibition (IC50), CYP2D6
T10 construct: from tissue; host or cells: human liver microsomes
Protocol: as §3

CYP2C8 = target: T11, CYP2C8 (Homo sapiens, UniProt P10632); test: CYP inhibition in human liver microsomes; assay type: in vitro ADME; details: read-out: CPY450 inhibition (IC50), CYP2C8
T11 construct: from tissue; host or cells: human liver microsomes
Protocol: as §3

CYP1A2 = target: T12, CYP1A2 (Homo sapiens, UniProt P05177); test: CYP inhibition in human liver microsomes; assay type: in vitro ADME; details: read-out: CPY450 inhibition (IC50), CYP1A2
T12 construct: from tissue; host or cells: human liver microsomes
Protocol: as §3

CYP2B6 = target: T13, CYP2B6 (Homo sapiens, UniProt P20813); test: CYP inhibition in human liver microsomes; assay type: in vitro ADME; details: read-out: CPY450 inhibition (IC50), CYP2B6
T13 construct: from tissue; host or cells: human liver microsomes
Protocol: as §3

CYP2C9 = target: T14, CYP2C9 (Homo sapiens, UniProt P11712); test: CYP inhibition in human liver microsomes; assay type: in vitro ADME; details: read-out: CPY450 inhibition (IC50), CYP2C9
T14 construct: from tissue; host or cells: human liver microsomes
Protocol: as §3

CYP3A4 = CYP3A4 (Homo sapiens, UniProt P08684); test: CYP inhibition in human liver microsomes; assay type: in vitro ADME; details: read-out: CPY450 inhibition (IC50), CYP3A4
Protocol: as §3

Sequence of CYP3A4 (P08684 2-503): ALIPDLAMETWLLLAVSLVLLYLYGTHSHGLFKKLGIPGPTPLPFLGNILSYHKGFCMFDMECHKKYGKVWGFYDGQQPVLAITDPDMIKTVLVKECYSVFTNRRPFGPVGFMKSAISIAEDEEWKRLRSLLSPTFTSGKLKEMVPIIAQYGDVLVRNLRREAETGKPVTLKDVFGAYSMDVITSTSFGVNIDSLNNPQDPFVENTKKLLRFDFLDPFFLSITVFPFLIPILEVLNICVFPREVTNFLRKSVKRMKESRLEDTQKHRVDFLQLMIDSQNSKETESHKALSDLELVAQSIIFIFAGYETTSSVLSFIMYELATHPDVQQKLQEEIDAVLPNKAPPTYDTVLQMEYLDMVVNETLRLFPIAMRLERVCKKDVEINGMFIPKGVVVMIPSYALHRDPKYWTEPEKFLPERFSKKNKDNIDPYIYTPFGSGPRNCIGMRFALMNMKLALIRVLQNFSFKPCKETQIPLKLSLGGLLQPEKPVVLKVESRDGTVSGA
T12 sequence (P05177 whole entry): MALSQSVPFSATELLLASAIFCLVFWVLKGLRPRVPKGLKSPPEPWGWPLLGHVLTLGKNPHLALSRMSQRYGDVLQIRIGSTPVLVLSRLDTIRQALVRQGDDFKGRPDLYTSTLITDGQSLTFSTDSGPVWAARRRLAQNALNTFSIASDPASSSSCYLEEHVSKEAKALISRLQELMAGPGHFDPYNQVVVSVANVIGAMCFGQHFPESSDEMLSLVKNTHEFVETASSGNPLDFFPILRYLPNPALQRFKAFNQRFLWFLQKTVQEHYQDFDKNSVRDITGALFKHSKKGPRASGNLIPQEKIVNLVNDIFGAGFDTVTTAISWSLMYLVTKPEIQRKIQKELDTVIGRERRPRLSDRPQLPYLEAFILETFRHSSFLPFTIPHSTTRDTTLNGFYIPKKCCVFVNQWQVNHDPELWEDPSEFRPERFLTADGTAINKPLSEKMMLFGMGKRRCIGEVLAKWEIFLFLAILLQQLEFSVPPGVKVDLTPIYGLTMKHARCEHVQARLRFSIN
T1 sequence (P13945 whole entry): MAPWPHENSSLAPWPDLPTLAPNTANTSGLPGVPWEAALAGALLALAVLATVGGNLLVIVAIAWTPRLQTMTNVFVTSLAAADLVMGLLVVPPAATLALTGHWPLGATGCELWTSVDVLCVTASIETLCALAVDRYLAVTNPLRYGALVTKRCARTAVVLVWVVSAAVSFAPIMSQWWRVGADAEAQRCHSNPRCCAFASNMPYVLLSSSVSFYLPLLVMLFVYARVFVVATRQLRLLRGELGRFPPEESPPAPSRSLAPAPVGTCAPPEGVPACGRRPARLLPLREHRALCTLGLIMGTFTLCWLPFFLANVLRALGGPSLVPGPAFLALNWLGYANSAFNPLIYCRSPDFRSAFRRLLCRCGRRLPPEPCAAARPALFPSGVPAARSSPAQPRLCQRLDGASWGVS
T14 sequence (P11712 whole entry): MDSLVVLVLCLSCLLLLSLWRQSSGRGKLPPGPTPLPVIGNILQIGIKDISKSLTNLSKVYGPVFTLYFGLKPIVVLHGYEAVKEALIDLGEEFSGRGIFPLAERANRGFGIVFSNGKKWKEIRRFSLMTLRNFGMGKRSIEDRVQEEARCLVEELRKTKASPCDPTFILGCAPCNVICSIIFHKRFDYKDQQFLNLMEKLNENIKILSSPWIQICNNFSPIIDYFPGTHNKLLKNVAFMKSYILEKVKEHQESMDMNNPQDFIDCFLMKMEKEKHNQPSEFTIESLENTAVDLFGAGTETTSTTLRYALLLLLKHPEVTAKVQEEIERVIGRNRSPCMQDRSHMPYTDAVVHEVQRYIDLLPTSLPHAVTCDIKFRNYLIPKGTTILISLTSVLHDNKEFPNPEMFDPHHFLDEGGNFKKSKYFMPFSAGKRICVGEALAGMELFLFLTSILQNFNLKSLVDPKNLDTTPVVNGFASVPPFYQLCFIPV
T4 sequence (P35348 whole entry): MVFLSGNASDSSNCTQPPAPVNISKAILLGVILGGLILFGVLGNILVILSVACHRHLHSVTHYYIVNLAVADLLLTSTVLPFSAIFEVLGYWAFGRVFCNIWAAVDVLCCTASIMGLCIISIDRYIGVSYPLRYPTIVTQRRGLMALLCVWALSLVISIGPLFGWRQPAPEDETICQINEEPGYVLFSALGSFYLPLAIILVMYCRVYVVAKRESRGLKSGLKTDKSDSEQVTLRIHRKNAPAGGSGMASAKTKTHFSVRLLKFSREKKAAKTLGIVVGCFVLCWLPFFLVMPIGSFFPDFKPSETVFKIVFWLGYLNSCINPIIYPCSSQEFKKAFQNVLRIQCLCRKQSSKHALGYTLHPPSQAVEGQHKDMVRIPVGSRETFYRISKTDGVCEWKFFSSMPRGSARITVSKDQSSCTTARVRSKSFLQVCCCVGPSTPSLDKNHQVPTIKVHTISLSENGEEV
T7 sequence (P21728 whole entry): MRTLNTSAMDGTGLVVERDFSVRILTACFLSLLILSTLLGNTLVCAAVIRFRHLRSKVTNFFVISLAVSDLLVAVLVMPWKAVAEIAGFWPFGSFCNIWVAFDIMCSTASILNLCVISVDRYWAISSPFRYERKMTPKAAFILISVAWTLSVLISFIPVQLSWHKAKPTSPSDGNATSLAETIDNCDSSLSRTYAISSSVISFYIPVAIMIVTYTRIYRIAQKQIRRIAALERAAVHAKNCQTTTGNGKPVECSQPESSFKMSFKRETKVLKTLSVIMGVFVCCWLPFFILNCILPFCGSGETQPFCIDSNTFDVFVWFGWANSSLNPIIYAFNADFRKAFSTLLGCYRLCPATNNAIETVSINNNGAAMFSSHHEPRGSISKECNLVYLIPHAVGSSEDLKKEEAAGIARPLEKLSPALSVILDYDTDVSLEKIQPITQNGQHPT
T8 sequence (Q01959 whole entry): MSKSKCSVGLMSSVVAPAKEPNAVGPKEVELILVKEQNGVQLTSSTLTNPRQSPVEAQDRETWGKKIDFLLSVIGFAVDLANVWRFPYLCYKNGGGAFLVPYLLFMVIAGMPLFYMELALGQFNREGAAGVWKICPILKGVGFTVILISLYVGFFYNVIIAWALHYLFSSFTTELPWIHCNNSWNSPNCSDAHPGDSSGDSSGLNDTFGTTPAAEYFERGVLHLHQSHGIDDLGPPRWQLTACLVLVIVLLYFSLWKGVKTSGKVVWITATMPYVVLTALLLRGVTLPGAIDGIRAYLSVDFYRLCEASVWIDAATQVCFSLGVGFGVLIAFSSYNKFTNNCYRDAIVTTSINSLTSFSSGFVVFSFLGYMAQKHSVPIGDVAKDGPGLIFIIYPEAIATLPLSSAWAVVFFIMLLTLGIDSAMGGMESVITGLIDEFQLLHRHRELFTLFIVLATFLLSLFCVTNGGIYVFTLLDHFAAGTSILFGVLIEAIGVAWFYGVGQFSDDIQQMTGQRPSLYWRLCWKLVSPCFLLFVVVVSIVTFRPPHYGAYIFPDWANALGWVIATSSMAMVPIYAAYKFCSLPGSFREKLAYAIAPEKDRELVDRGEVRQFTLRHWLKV
T3 sequence (P35368 whole entry): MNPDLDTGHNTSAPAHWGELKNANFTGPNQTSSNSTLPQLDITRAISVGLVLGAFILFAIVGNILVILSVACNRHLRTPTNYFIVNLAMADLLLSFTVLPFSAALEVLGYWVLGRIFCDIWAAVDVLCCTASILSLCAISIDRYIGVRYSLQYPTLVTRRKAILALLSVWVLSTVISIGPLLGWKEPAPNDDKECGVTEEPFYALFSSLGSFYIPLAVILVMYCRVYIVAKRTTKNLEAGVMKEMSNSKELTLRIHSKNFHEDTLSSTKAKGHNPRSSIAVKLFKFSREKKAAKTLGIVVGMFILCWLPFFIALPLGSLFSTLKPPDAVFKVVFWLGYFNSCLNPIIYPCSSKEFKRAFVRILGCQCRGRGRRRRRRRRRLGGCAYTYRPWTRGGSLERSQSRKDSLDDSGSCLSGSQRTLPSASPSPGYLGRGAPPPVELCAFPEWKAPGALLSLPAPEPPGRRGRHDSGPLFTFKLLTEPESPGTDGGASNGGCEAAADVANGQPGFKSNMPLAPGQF
T6 sequence (P18089 whole entry): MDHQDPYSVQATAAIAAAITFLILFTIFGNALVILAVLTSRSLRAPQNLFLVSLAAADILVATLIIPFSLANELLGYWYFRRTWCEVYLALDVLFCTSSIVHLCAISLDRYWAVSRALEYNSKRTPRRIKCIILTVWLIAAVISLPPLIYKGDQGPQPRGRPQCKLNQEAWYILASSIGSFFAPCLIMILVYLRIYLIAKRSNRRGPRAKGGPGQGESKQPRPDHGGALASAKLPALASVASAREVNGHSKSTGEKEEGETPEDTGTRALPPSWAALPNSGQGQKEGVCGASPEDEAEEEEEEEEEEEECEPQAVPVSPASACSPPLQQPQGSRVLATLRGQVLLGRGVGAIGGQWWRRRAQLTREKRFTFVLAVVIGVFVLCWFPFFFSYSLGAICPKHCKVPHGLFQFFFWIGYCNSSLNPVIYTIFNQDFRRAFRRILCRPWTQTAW
T13 sequence (P20813 whole entry): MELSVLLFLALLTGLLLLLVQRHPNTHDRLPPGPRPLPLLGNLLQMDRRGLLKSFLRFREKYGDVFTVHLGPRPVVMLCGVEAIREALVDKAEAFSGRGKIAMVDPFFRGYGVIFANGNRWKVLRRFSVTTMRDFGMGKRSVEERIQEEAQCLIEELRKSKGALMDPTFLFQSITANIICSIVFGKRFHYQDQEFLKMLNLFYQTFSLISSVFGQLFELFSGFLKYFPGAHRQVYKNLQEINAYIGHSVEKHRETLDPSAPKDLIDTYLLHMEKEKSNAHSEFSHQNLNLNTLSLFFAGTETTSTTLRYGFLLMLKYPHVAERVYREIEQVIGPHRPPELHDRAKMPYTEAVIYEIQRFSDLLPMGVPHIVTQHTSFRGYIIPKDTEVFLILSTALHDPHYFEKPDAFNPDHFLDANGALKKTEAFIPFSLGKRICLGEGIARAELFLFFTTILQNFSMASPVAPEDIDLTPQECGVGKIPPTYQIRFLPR

COc1cc(-c2[o+]c3cc(O)cc(O)c3cc2O[C@@H]2O[C@H](CO)[C@@H](O)[C@H](O)[C@H]2O)cc(OC)c1O [Mal-gluc]
Plasma stability, Half-life (human plasma) [1]: 250 min | Binding activity, Beta3 (percentage) [2]: −17.7% | Binding activity, 5-HT1A (percentage) [3]: 8.6% | Binding activity, Alpha1B (percentage) [4]: 24.4% | Binding activity, Alpha1A (percentage) [5]: −4.5% | Binding activity, NET (percentage) [6]: −9.4% | Binding activity, Alpha2B (percentage) [7]: −5.9% | Binding activity, D1 (percentage) (D1 (dopamine receptor)): −10.3% | Binding activity, DAT (percentage) [8]: −18.2% | Brain homogenate stability, Half-life (mouse homogenate) [9]: 29.4 min | MTT assay, % of vehicle control [10]: 100% | IC50 (CYP2C19): > 25 µM | IC50 (CYP2D6): > 25 µM | IC50 (CYP2C8): > 25 µM | IC50 (CYP1A2): > 25 µM | IC50 (CYP2B6): > 25 µM | IC50 (CYP2C9): > 25 µM | IC50 (CYP3A4): > 25 µM

O=C(O)CCc1ccc(O)c(O)c1 [DHCA, 3(3,4-dihydroxy-phenyl) propionic acid]
half-life ([1]; human, plasma): 66.7 min | Binding activity, Beta3 (percentage) [2]: −15.8% | Binding activity, 5-HT1A (percentage) [3]: 3.3% | Binding activity, Alpha1B (percentage) [4]: 11.1% | Binding activity, Alpha1A (percentage) [5]: 4% | Binding activity, NET (percentage) [6]: −16.4% | Binding activity, Alpha2B (percentage) [7]: −2.3% | Binding activity, D1 (percentage) (D1 (dopamine receptor)): −3.7% | Binding activity, DAT (percentage) [8]: 34.5% | half-life ([9]; mouse): 16.1 min | MTT assay, % of vehicle control [10]: 100% | IC50 (CYP2C19): > 25 µM | IC50 (CYP2D6): > 25 µM | IC50 (CYP2C8): > 25 µM | IC50 (CYP1A2): > 25 µM | IC50 (CYP2B6): > 25 µM | IC50 (CYP2C9): > 25 µM | IC50 (CYP3A4; human, pH 7.4, probe midazolam/testosterone): > 25 µM
